From patent publication US8946257B2, “N-containing heteroaryl derivatives as JAK3 kinase inhibitors” (Vectura Limited, priority 2009, dated 2015)
Where a name gives a salt, the structure may show the parent alone.

Assays:
[1] = target: catalytic domain of human JAK3 (Homo sapiens, UniProt P52333); test: Inhibition of JAK3 activity (Z'-Lyte Kinase Assay kit-Tyr 6 Peptide); assay type: biochemical
Experimental: The inhibition of JAK3 kinase activity was determined in 384-well assay microplates using the Z′-Lyte® Kinase Assay kit-Tyr 6 Peptide kit, supplied by Invitrogan (Ref: PV4122), following the manufacturer's instructions.
(§1) In a final volume of 10 μL per well, 2.5 μL of the product to be tested dissolved in 4% DMSO (final concentration of the product to be tested, 0.1-10000 nM) was incubated with 0.3 μg/mL of the catalytic domain of human JAK3 (amino acid sequence 281-1124), 2 μM of the substrate peptide Z′-Lyte® Tyr 6 and 4 μM of ATP; all components were dissolved in 50 mM pH 7.5 Hepes buffer, 10 mM Magnesium chloride (II), 1 mM EGTA and 0.01% Brij® 35. The reaction was started by the addition of said 4 μM ATP; after incubation for 1 hour at 25° C., 5 μL of A Z′-Lyte® Tyr 6 development reagent was added and the mixture was incubated for 1 hour at 25° C. Phosphorylation was then quantified in each well using a Safire2® fluorescence microplate reader from Tecan.

[2] = target: T1, catalytic domain of human JAK2 (Homo sapiens, UniProt O60674); test: Inhibition of JAK2 activity (Z'-Lyte Kinase Assay kit-Tyr 6 Peptide); assay type: biochemical
T1 construct: the catalytic domain of human JAK2
T1 sequence (O60674 849-1124 limits assumed): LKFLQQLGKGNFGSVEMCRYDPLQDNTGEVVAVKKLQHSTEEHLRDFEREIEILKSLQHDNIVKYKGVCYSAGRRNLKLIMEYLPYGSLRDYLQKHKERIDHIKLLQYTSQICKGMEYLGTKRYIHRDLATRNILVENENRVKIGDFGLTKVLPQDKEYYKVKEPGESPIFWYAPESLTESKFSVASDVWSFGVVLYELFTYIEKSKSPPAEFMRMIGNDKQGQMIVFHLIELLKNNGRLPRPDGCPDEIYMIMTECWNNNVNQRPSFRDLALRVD
Experimental: The inhibition of JAK2 kinase activity was determined in 384-well assay microplates using the Z′-Lyte® Kinase Assay kit-Tyr 6 Peptide kit, supplied by Invitrogen (Ref: PV4122), following the manufacturer's instructions.
as §1, with “with 0.5 μg/well” for “with 0.3 μg/mL”, “human JAK2,” for “human JAK3 (amino acid sequence 281-1124),”, “and 16” for “and 4”, “said 16” for “said 4”

Sequence of catalytic domain of human JAK3 (P52333 781-1124 limits assumed): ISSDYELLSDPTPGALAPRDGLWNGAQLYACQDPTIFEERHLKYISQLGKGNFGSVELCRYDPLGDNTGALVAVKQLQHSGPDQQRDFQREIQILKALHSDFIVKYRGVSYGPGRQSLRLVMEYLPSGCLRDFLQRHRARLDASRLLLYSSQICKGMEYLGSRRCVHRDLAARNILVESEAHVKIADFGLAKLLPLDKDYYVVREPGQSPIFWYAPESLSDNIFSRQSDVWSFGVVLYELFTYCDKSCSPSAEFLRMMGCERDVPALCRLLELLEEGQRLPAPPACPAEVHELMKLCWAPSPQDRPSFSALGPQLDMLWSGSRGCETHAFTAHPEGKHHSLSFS

Row | Structure (SMILES) | inhibition at 1 µM [1] | inhibition at 1 µM [2]
1 | CC(=O)N1CCC(n2c(=O)[nH]c3cnc(-c4cnn5ccc(C)cc45)nc32)CC1 [Example 1s, 9-(1-acetylpiperidin-4-yl)-2-(5-methylpyrazolo[1,5-a]pyridin-3-yl)-7H-purin-8(9H)-one] | > 50% | > 50%
2 | N#Cc1ccn2ncc(-c3ccc4[nH]c(=O)n(C5CCOCC5)c4n3)c2c1 [Example 2, 3-(2-Oxo-3-(tetrahydro-2H-pyran-4-yl)-2,3-dihydro-1H-imidazo[4,5-b]pyridin-5-yl)pyrazolo[1,5-a]pyridine-5-carbonitrile] | > 50% | > 50%
3 | O=c1[nH]c2ccc(-c3cnn4ccccc34)nc2n1C1CCOCC1 [Example 2e, 5-(pyrazolo[1,5-a]pyridin-3-yl)-3-(tetrahydro-2H-pyran-4-yl)-1H-imidazo[4,5-b]pyridin-2(3H)-one] | > 50% | > 50%
4 | Cn1c(=O)n(C2CCOCC2)c2nc(-c3cnn4ccc(C#N)cc34)ncc21 [Example 4, 3-(7-Methyl-8-oxo-9-tetrahydro-2H-pyran-4-yl-8,9-dihydro-7H-purin-2yl)pyrazolo[1,5-a]pyridine-5-carbonitrile] | > 50% | > 50%
5 | Cn1c(=O)n(C2CCOCC2)c2nc(-c3cnn4ccccc34)ccc21 [Example 5s, 1-methyl-5-(pyrazolo[1,5-a]pyridin-3-yl)-3-(tetrahydro-2H-pyran-4-yl)-1H-imidazo[4,5-b]pyridin-2(3H)-one] | > 50% | > 50%
6 | O=c1[nH]c2ccc(-c3cnn4ccccc34)nc2n1[C@H]1CCCNC1 [Example 6x, (S)-3-(piperidin-3-yl)-5-(pyrazolo[1,5-a]pyridin-3-yl)-1H-imidazo[4,5-b]pyridin-2(3H)-one hydrochloride] | > 50% | –
7 | C[C@@H](C(=O)N(C)C)n1c(=O)[nH]c2cnc(-c3cnn4ccccc34)nc21 [Example 15k] | – | > 50%
8 | COCCn1c(=O)n(C2CCOCC2)c2nc(-c3cnn4ccc(C#N)cc34)ncc21 [Example 16, 3-(7-(2-Methoxyethyl)-8-oxo-9-(tetrahydro-2H-pyran-4-yl)-8,9-dihydro-7H-purin-2-yl)pyrazolo[1,5-a]pyridine-5-carbonitrile] | – | > 50%
9 | CN(C)CCn1c(=O)n([C@H]2CCCN(C(=O)CC#N)C2)c2nc(-c3cnn4ccc(C#N)cc34)ncc21 [Example 16a] | – | > 50%
10 | N#Cc1ccn2ncc(-c3ccc4ncn(C5CCOCC5)c4n3)c2c1 [Example 19, 3-(3-(Tetrahydro-2H-pyran-4-yl)-3H-imidazo[4,5-b]pyridin-5-yl)pyrazolo[1,5-a]pyridine-5-carbonitrile] | – | > 50%
11 | Cc1nc2ccc(-c3cnn4ccc(C#N)cc34)nc2n1C1CCOCC1 [Example 20, 3-(2-Methyl-3-(tetrahydro-2H-pyran-4-yl)-3H-imidazo[4,5-b]pyridin-5-yl)pyrazolo[1,5-a]pyridine-5-carbonitrile] | > 50% | > 50%
12 | Cn1ccnc1-c1nc2cnc(-c3cnn4ccc(C#N)cc34)nc2n1C1CCOCC1 [Example 21, 3-(8-(1-Methyl-1H-imidazol-2-yl)-9-(tetrahydro-2H-pyran-4-yl)-9H-purin-2-yl)pyrazolo[1,5-a]pyridine-5-carbonitrile] | > 50% | –
13 | CCNc1nc2cnc(-c3cnn4ccc(C#N)cc34)nc2n1C1CCOCC1 [Example 22, 3-[8-(Ethylamino)-9-tetrahydro-2H-pyran-4-yl-9H-purin-2-yl]pyrazolo[1,5-a]pyridine-5-carbonitrile] | > 50% | > 50%
14 | c1ccn2ncc(-c3ncc4nc(C5CCCC5)n(C5CCOCC5)c4n3)c2c1 [Example 23, 8-Cyclopentyl-2-(pyrazolo[1,5-a]pyridin-3-yl)-9-(tetrahydro-2H-pyran-4-yl)-9H-purine] | > 50% | > 50%
15 | C[C@H](CO)n1c(=O)[nH]c2cnc(-c3cnn4ccc(C#N)cc34)nc21 [Example 28, (R)-3-(9-(1-Hydroxypropan-2-yl)-8-oxo-8,9-dihydro-7H-purin-2-yl)pyrazolo[1,5-a]pyridine-5-carbonitrile] | > 50% | –
16 | C[C@H](CO)n1c(=O)n(C)c2cnc(-c3cnn4ccc(C#N)cc34)nc21 [Example 32, (R)-3-(9-(1-Hydroxypropan-2-yl)-7-methyl-8-oxo-8,9-dihydro-7H-purin-2-yl)pyrazolo[1,5-a]pyridine-5-carbonitrile] | > 50% | –
17 | Cn1c(=O)n([C@H]2CC[C@H](O)CC2)c2nc(-c3cnn4ccc(C#N)cc34)ncc21 [Example 35, 3-(9-(trans-4-Hydroxycyclohexyl)-7-methyl-8-oxo-8,9-dihydro-7H-purin-2-yl)pyrazolo[1,5-a]pyridine-5-carbonitrile] | > 50% | –
18 | N#Cc1ccn2ncc(-c3ncc4[nH]c(=O)n(CC(=O)NCC(F)(F)F)c4n3)c2c1 [Example 36, 2-(2-(5-Cyanopyrazolo[1,5-a]pyridin-3-yl)-8-oxo-7H-purin-9(8H)-yl)-N-(2,2,2-trifluoroethyl)acetamide] | > 50% | –
19 | Cn1c(=O)n(C2CCOCC2)c2nc(-c3cnc4ccccn34)ncc21 [Example 37, 2-(Imidazo[1,2-a]pyridin-3-yl)-7-methyl-9-(tetrahydro-2H-pyran-4-yl)-7H-purin-8(9H)-one] | > 50% | –

Results, then the molecule that gave them:

Row | inhibition at 1 µM [1] | inhibition at 1 µM [2] | Structure (SMILES)
20 | – | > 50% | Cc1nc2cnc(-c3cnn4ccc(C#N)cc34)nc2n1C1CCOCC1 [Example 18a]
21 | – | > 50% | Cc1nc2cnc(-c3cnn4ccc(C#N)cc34)nc2n1C1CCC(F)(F)CC1 [Example 18b]
22 | – | > 50% | c1csc(-c2nc3cnc(-c4cnn5ccccc45)nc3n2C2CCOCC2)c1 [Example 21k]
23 | – | > 50% | c1ccn2ncc(-c3ncc4nc(C5CC5)n(C5CCOCC5)c4n3)c2c1 [Example 23d]
24 | – | > 50% | Cn1c(=O)n([C@H]2CCCN(C(=O)C(C)(C)C)C2)c2nc(-c3cnn4ccccc34)ccc21 [Example 24a]
25 | – | > 50% | CCC(=O)N1CCC[C@H](n2c(=O)n(C)c3ccc(-c4cnn5ccccc45)nc32)C1 [Example 24c]
26 | – | > 50% | CCOC(=O)N1CCC[C@H](n2c(=O)[nH]c3cnc(-c4cnn5ccc(C#N)cc45)nc32)C1 [Example 26a]
27 | – | > 50% | CC(C)NC(=O)N1CCC[C@H](n2c(=O)[nH]c3cnc(-c4cnn5ccc(C#N)cc45)nc32)C1 [Example 26c]
28 | – | > 50% | CC(C)(C)NC(=O)N1CCC[C@H](n2c(=O)[nH]c3cnc(-c4cnn5ccc(C#N)cc45)nc32)C1 [Example 26d]
29 | – | > 50% | CCOC(=O)n1c(=O)n([C@H]2CCCN(C(=O)CC#N)C2)c2nc(-c3cnn4ccccc34)ncc21 [Example 26e]
30 | – | > 50% | CC(=O)n1c(=O)n([C@H]2CCCN(C(=O)CC#N)C2)c2nc(-c3cnn4ccccc34)ncc21 [Example 26f]
31 | – | > 50% | CC(=O)N1CCC[C@H](n2c(=O)n(C)c3cnc(-c4cnn5ccccc45)nc32)C1 [Example 26g]
32 | – | > 50% | N#Cc1ccn2ncc(-c3ncc4[nH]c(=O)n([C@H]5CCCN(C(=O)C6(O)CC6)C5)c4n3)c2c1 [Example 27a]
33 | – | > 50% | CCC(=O)Nc1nc2cnc(-c3cnn4ccccc34)nc2n1C1CCOCC1 [Example 34b]
